The text below walks through data of patent publication US12281098B2, “Five-membered-fused six-membered compound, preparation method, pharmaceutical composition and use” (HANGZHOU POLYMED BIOPHARMACEUTICALS, INC., priority 2021, dated 2025).

Each structure is given as a SMILES string. Read-outs that look alike come from different tables or passages of the source.

One assay deals with T1, IRAK4 kinase (Homo sapiens, UniProt Q9NWZ3).
T1 construct: purchased Carna 09-145
T1 sequence (Q9NWZ3 1-460): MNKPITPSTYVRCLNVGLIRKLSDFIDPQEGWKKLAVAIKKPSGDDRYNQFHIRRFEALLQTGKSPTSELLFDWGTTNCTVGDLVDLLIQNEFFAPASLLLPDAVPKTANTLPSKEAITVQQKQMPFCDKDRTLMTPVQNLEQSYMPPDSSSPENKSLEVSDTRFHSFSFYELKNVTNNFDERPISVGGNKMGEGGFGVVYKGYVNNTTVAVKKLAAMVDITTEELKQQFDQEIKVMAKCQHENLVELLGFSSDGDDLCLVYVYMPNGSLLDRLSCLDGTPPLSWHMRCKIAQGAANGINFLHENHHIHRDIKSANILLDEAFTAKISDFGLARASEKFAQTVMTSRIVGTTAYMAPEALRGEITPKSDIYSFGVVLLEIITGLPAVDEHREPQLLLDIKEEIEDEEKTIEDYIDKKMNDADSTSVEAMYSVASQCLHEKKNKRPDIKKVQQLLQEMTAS
The experiment in a line: Compound inhibition of IRAK4 kinase activity (fluorescence microfluidic mobility shift assay). In kind it is biochemical. Particulars: 10 μM ATP, 6 nM IRAK4 kinase. The method, then: Based on the experimental method of fluorescence microfluidic mobility shift assay, the IC50 value of the compound for competitive binding of ATP to IRAK4 kinase was determined. The initial detection concentration of the compound was 10 μM, which was 4-fold serially diluted to 0.38 nM and assayed in duplicate. In this case, commercially available staurosporine was the standard control for the assay.
1) IRAK4 kinase was dissolved in kinase buffer (50 mM HEPES pH 7.5, 10 mM MgCl2, 2 mM DDT, and 0.01% Brij-35) at a final concentration of 6 nM.
2) The substrate peptide FAM-P8 and ATP were dissolved in the above kinase buffer, and the final concentrations of the substrate peptide FAM-P8 and ATP for IRAK4 were 3 μM and 10 μM, respectively.
3) Compound dilution: The compound was first diluted to 50 μM, and then 4-fold serially diluted with DMSO. In this case, the solution without compound and kinase served as the blank control, corresponding to the “minimum value” shown below; the solution without compound but containing kinase, adenosine 5′-triphosphate disodium salt hydrate, DMSO, and the buffer served as the positive control, corresponding to the “maximum value” shown below.
4) Kinase reaction and termination: 10 μL of the kinase buffer was added to a 384-well plate containing 5 μL of the compound to be tested, and the mixture was incubated at room temperature for 10 minutes; another 10 μL of buffer containing the substrate peptide and adenosine 5′-triphosphate disodium salt hydrate was added to the 384-well plate, and after incubation at 28° C. for 1 hour, 25 μL of termination solution (100 mM HEPES pH 7.5, 50 mM EDTA, 0.2% Coating Reagent #3, and 0.015% Brij-35) was added to each well to terminate the reaction.
5) Data reading: CaliperEZ Reader II instrument was used to read the conversion rate data. Setting conditions: downstream voltage as −500 V, upstream voltage as −2250 V, base pressure as −0.5 PSI, and screening pressure as −1.2 PSI.
6) Data calculation: the conversion rate data was copied from CaliperEZ Reader II, and the conversion rate was converted into inhibition rate data. The calculation formula is as follows: Inhibition percentage (%)=(maximum value−conversion rate)/(maximum value−minimum value)*100%
IC50 values were fitted with XLFit excel add-in version 5.4.0.8.

Another assay concerns THP-1 cells. The experiment in a line: LPS-stimulated cytokine (TNFα) release in THP-1. In kind it is cell-based, Human. Particulars: LPS 100 ng/mL, 5 hours, TNF-α ELISA, read-out: Inhibition IC50 (nM) of cytokines (TNFα) against LPS-stimulated inflammatory responses in THP-1 cells. The method, then: THP-1 cells were cultured in suspension in RPMI 1640 complete medium (containing 10% serum, 1% penicillin-streptomycin, and 55 μM β-mercaptoethanol). THP-1 cells were collected, centrifuged at 350×g at room temperature to discard the supernatant, and resuspended in RPMI 1640 complete medium to a concentration of 2×10^6 cells per mL. THP-1 cells were spread into a 96-well plate at a concentration of 2×10^5 cells per well, and different concentrations of the compound to be tested were added thereto. The plate was incubated in a 37° C. cell culture incubator with 5% CO2 for 60 minutes. 50 μL of LPS at a final concentration of 100 ng/mL was added to a 96-well plate, and incubated in a 37° C. cell culture incubator for 5 hours. The cell culture plate was then taken out from the incubator, and centrifuged at 350×g at low temperature for 5 minutes to collect 150 μL of the supernatant. Referring to the instructions in the Human TNF-α Duoset ELISA Kit, the level of TNF-α in the cell culture supernatant was detected.
Data on the inhibitory activity of cytokines (TNFα) against LPS-stimulated inflammatory responses in THP-1 cells are shown in Tables 3 and 4.
In general terms: ELISA stands for enzyme-linked immunosorbent assay.

Assay [1] has as its target T2, IRAK4 protein in THP-1 cells (Homo sapiens, UniProt Q9NWZ3).
T2 construct: endogenous in cells; host or cells: THP-1
T2 sequence (Q9NWZ3 1-460): T1 sequence (Q9NWZ3 1-460)
Put plainly: IRAK4 protein degradation in THP-1 induced by PROTAC (Western Blot). The class given is cell-based. Particulars: GAPDH internal reference. As to the method:
3.1. Based on the experimental method of immunoblot, i.e., Western Blot, THP-1 cell samples processed by gel electrophoresis were stained with specific antibodies, and the degradation activity of the compounds on the IRAK4 protein in THP-1 cells was determined by analyzing the position of the staining and the depth of the staining. The detection concentrations of the compounds were 0 μM, 0.3 μM, 1 μM, and 3 μM, and the compounds were used to treat the cells for 8 hours, 16 hours, 24 hours, and 48 hours. In this case, glyceraldehyde-3-phosphate dehydrogenase (GAPDH) was the internal reference protein for the assay.
THP-1 cells were spread into a 6-well plate at a density of 1.5×10^6 cells per mL, and incubated in a 37° C. cell culture incubator with 5% CO2 for 2 hours. The compound was diluted with DMSO to 0.6 mM, 0.2 mM, and 0.06 mM, respectively. 10 μL of compound solution was added to the corresponding wells, and the plate was incubated in the incubator for 16 hours, 24 hours, and 48 hours, respectively. The drug-treated THP-1 cells were collected from the wells, added with 120 μL of RIPA lysis buffer containing protease inhibitor, phosphatase inhibitor cocktail 2, and phosphatase inhibitor cocktail 3, and lysed on wet ice for 30 minutes. The cell lysate was then centrifuged at low temperature and high speed for 5 minutes, and the supernatant was collected. Referring to the instructions in the Pierce™ BCA Protein Assay Kit, the cell samples were tested for protein concentration.
The samples were adjusted to the same concentration using lysis buffer and NuPAGE® LDS sample buffer containing 1 M DTT. The samples were heated at 95° C. for 5 minutes and centrifuged at low temperature and high speed. 20 μL of prepared protein sample and 4 μL of PageRuler Prestained Protein Ladder were added to the gel wells. The mixture was electrophoresed at a voltage of 80 V for 0.5 hours, and then electrophoresed for another 1.5 hours after the voltage was adjusted to 120 V. The gel was removed and proteins in the gel were transferred to IBlot™ 2 Transfer Stack at a voltage of 20V. After successful membrane transfer, the bands were cut out at 65 kDa to 40 kDa and 40 kDa to 30 kDa, respectively. The membrane was blocked with 5% non-fat milk at room temperature for 1 hour. The membrane was washed three times with 1×TBST, and incubated with IRAK4 antibody working solution at 4° C. overnight. The IRAK4 antibody working solution was discarded, and the membrane was washed three times with 1×TBST. After the corresponding membrane was incubated with Goat Anti-Rabbit IgG H&L (HRP) working solution and Goat Anti-Mouse IgG H&L (HRP) working solution at room temperature for 1 hour, the antibody working solutions were discarded, and the membrane was washed three times with 1×TBST. Referring to the instructions in the SuperSignal™ West Femto Maximum Sensitivity Substrate Kit, the reagents in the kit were mixed in equal volume proportions to prepare a luminescent mixture, and the membrane was incubated for 1 minute and removed for exposure.
WB assay: The results 24 hours after administration at 1 μM were divided into estimated <25%, <50%, <75%, and <100%.
In general terms: Immunoblotting shows a protein as a band on a membrane.

With `CC(C)(O)c1cc2nn(CCN3CCN(CC(=O)N4CCC5(CC4)CN(c4cccc6c4C(=O)N(C4CCC(=O)NC4=O)C6=O)C5)C3=O)cc2cc1NC(=O)c1cccc(C(F)(F)F)n1` (centres unmarked) [III-5], the IC50 (usually the concentration that inhibits the measured activity by half) on IRAK4 kinase (Table 1) was 100 to 1000 nM; at IRAK4 kinase (Table 2) it was 100 to 1000 nM; with THP-1 cells (Homo sapiens, THP-1, Table 4), 1000 to 10000 nM. Further, the “Western Blot results 24 hours after administration at a drug concentration of 1 μM” value (shortened to “Western Blot results 24 hours”) in assay [1] (Table 6, estimated bins) is given as less than 25%.
On to `Cc1ncsc1-c1ccc([C@H](C)NC(=O)[C@@H]2C[C@@H](O)CN2C(=O)[C@@H](NC(=O)C2CC3(CCN(C(=O)CN4CCN(CCn5cc6cc(NC(=O)c7cccc(C(F)(F)F)n7)c(C(C)(C)O)cc6n5)C4=O)CC3)C2)C(C)(C)C)cc1` [III-16], for which the IC50 on IRAK4 kinase (Table 1) fell in the range of 100 to 1000 nM; on IRAK4 kinase (Table 2), 100 to 1000 nM; in the assay with THP-1 cells (Homo sapiens, THP-1, Table 3), 1000 to 10000 nM; with THP-1 cells (Table 4) it was 1000 to 10000 nM. In addition, in assay [1] (Table 5, estimated bins), the “Western Blot results 24 hours” value is given as less than 50%.
As to `Cc1ncsc1-c1ccc([C@H](C)NC(=O)[C@@H]2C[C@@H](O)CN2C(=O)[C@@H](NC(=O)C2CCC3(CC2)CCN(C(=O)CN2CCN(CCn4cc5cc(NC(=O)c6cccc(C(F)(F)F)n6)c(C(C)(C)O)cc5n4)C2=O)CC3)C(C)(C)C)cc1` [III-17], the half-maximal inhibitory concentration (IC50) on IRAK4 kinase (Table 1) lay in the range of 100 to 1000 nM; on IRAK4 kinase (Table 2), 100 to 1000 nM; in the assay with THP-1 cells (Homo sapiens, THP-1, Table 3), 1000 to 10000 nM; in the assay with THP-1 cells (Table 4), 1000 to 10000 nM. Also, the “Western Blot results 24 hours” value in assay [1] (Table 5, estimated bins) is reported as less than 25%; in assay [1] (Table 6, estimated bins), less than 25%.
For the molecule `COc1cc2nn(CCN3CC4CCC(C3)N4CC(=O)N3CCC4(CC3)CCN(c3cccc5c3C(=O)N(C3CCC(=O)NC3=O)C5=O)CC4)cc2cc1NC(=O)c1cccc(C(F)(F)F)n1` (centres unmarked) [III-54], at IRAK4 kinase (Table 2), the IC50 was less than 100 nM. Also, in assay [1] (Table 6, estimated bins), the “Western Blot results 24 hours” value is given as less than 25%.
The matching figures for `COc1cc2nn(CCN3CCN(CC(=O)N4CCC5(CCC(Oc6cccc7c6C(=O)N(C6CCC(=O)NC6=O)C7=O)CC5)CC4)CC3)cc2cc1NC(=O)c1cccc(C(F)(F)F)n1` (centres unmarked) [III-56]: less than 100 nM and less than 25%.
As for `CC(C)(O)c1cc2nn(CCN3CCN(CC(=O)N4CC5(C4)CN(c4cccc6c4C(=O)N(C4CCC(=O)NC4=O)C6=O)C5)CC3)cc2cc1NC(=O)c1cccc(C(F)(F)F)n1` (centres unmarked) [III-63], the half-inhibitory concentration (IC50) on IRAK4 kinase (Table 2) was less than 100 nM. Besides, in assay [1] (Table 6, estimated bins), the “Western Blot results 24 hours” value is recorded as less than 25%.
For `COc1cc2nn(CCN3CCN(c4ccc(OCC#Cc5cccc6c5C(=O)N(C5CCC(=O)NC5=O)C6=O)cc4)CC3)cc2cc1NC(=O)c1cccc(C(F)(F)F)n1` (centres unmarked) [III-69], the IC50 on IRAK4 kinase (Table 2) is 100 to 1000 nM. Besides, the “Western Blot results 24 hours” value in assay [1] (Table 6, estimated bins) is recorded as less than 25%.
